Source: US20180036355A1 (priority 2004, published 2018)

Legend:
[1] = system: μ receptors for the opioids (MOR); assay: mRNA expression of the μ receptors for the opioids in epithelial cells stimulated by microorganisms (real-time PCR); type: cell-based
[2] = system: CB1 cannabinoid receptors; assay: mRNA expression of the CB1 receptors in epithelial cells stimulated by microorganisms (real-time PCR); type: cell-based
[3] = system: CB2 receptors; assay: mRNA expression of the CB2 receptors in epithelial cells stimulated by microorganisms (real-time PCR); type: cell-based
[4] = system: mu-opioid receptor (MOR); design: species or system Balb/c mice; settings: mouse, in vivo
[5] = system: MOR; assay: MOR immunohistochemistry of colonic epithelial cells of mice; type: in vivo, Balb/c mice; settings: mouse colon sections, 10^9 CFU once a day for fourteen days
[6] = system: CB1; assay: CB1 immunohistochemistry of colonic epithelial cells of mice; type: in vivo, Balb/c mice; settings: mouse colon sections, 10^9 CFU once a day for fourteen days
[7] = system: CB2; assay: CB2 immunohistochemistry of colonic epithelial cells of mice; type: in vivo, Balb/c mice; settings: mouse colon sections, 10^9 CFU once a day for fourteen days
[8] = system: TNFα; assay: Colonic TNF alpha mRNA expression in mice (real-time PCR); type: in vivo, Balb/c mice
[9] = system: KC; assay: Colonic KC mRNA expression in mice (real-time PCR); type: in vivo, Balb/c mice
[10] = system: IL-1β; assay: Colonic IL-1 beta mRNA expression in mice (real-time PCR); type: in vivo, Balb/c mice
[11] = Balb/c mice, oral 10^9 CFU during 15 days
[12] = mouse colon, 14 days of administration

Molecule	effect of NFkappaB pathway inhibition on the expression of MOR ([1]; HT-29 cells pre-treated with CAPE, stimulated with L. acidophilus)	induction of the μ receptors for the opioids (in words) ([1]; ATCC HTB-38 epithelial cells (FIG. 1), comparator TNF-α 10 ng/ml)	increase in the basal expression level of the mRNA of the μ receptors for the opioids ([1]; ATCC HTB-38 epithelial cells, after 3 hours' incubation (FIG. 1))	MOR expression in the epithelial cells (in words) ([1]; HT-29 or Caco-2 cells, 100 bacteria/cell, from the first hour of incubation)	increase in the basal expression level of the mRNA of CB1 ([2]; ATCC HTB-38 epithelial cells, after 3 hours' incubation (FIG. 2))	CB1 expression ([2]; HT-29 or Caco-2 cells, 100 bacteria/cell, 0 to 6 hours, p<0.05)	increase in the basal expression level of the mRNA of the CB2 receptors ([3]; ATCC HTB-38 epithelial cells, after 3 hours' incubation (FIG. 3))	CB2 expression ([3]; HT-29 or Caco-2 cells, 100 bacteria/cell, 0 to 6 hours, p<0.01)	increase of MOR mRNA expression in the colon vs untreated animals [4]	expression of MOR mRNA at the colonic level ([4]; po)	epithelial stained cells for MOR [5]	epithelial stained cells for CB1 [6]	epithelial stained cells for CB2 [7]	diminution of the expression of colonic inflammatory cytokines (TNF alpha) [8, 11]	decreased expression of TNFα mRNA level compared to controls [8, 12]	diminution of the expression of colonic inflammatory cytokines (KC) [9, 11]	decreased expression of KC mRNA level compared to controls [9, 12]	diminution of the expression of colonic inflammatory cytokines (IL-1 beta) [10, 11]	decreased expression of IL-1β mRNA level compared to controls [10, 12]
O=C(/C=C/c1ccc(O)c(O)c1)OCCc1ccccc1 [CAPE, caffeic acid phenetyl ester, reference compound]	did not induce modifications of the expression of MOR																		
Lactobacillus acidophilus		of the same order of magnitude as that obtained by TNF-α	approximately 1000 fold	strong MOR expression	approximately 1000 fold	848±180	approximately 100 fold	1498±333	24 fold	24±0.75	60±10%	60±8%	40±7%	at least 50%	More than 50%	at least 50%	More than 50%	at least 50%	More than 50%
